Laboratory results published in patent US12570673B2, “c-Myc protein inhibitor, and preparation method therefor and use thereof” (SUZHOU KINTOR PHARMACEUTICALS, INC., priority 2019, dated 2026).

Tests used:
HL60 cells = test: Anti-cancer activity test, MTT, HL60 cells; type: cell-based; settings: Homo sapiens, HL-60, culturing for 72 hours
Method: (§1) Cell culture medium: Roswell medium RPMI-1640 (+L-glutamine) was added with 10% fetal bovine serum, with 100 units penicillin and 100 μg streptomycin per ml.
(§2) Cell culture conditions: 5% CO2, 95% humidity, cultured at 37° C. constant temperature.
(§3) 2. Cell Inoculation, Drugs Dosing and Culture.
(§4) Logarithmic growth phase HL-60, human chronic myeloid leukemia cells (K562), human esophageal squamous cell carcinoma cells (KYSE510), human large cell lung cancer cells (H460) were inoculated into 96-well cell culture plates, 2×10^4 cells per well. Different concentrations of active compounds (dissolved in dimethyl sulfoxide (DMSO) stock solution) were added, so that the final concentration of DMSO was 0.2%, and the control group was DMSO. Each group was repeated three times.
(§5) After culturing for 72 hours, 20 µL of thiazolyl blue (MTT) (5 mg/ml, ready for use, dissolved in 1×PBS for cell culture) was added to each well, and incubated at 37° C. for 3 hours.
(§6) The 96-well cell culture plates were centrifuged at 1000 rpm for 10 minutes. The supernatant was discarded; 200 μL of DMSO was added to each well and the plate was shaken for 5 minutes.
(§7) The absorbance of each well was detected at 570 nm wavelength with a microplate reader, and the IC50 of the compounds was calculated.

[1] = target: c-Myc370-412-biotin peptide (Homo sapiens (Human), UniProt P01106); test: SPR binding affinity on c-Myc protein; settings: c-Myc370-412-biotin peptide immobilized, 1.00×PBS-P buffer (5% DMSO)
Method: 1. Experiment Preparation
10×PBS-P was diluted into 1.05×PBS-P buffer solution for later use. The c-Myc370-412-biotin peptide was dissolved in chromatographic pure DMSO to prepare a 1 mM stock solution. The molecules were dissolved in chromatographic pure DMSO to prepare a 10 mM stock solution. Part of 1.05×PBS-P buffer was added to chromatographic pure DMSO to prepare 1.00×PBS-P buffer (5% DMSO, ready for use).
The highest solubility of each small molecule in the 1.00×PBS-P buffer (5% DMSO) system was tested respectively. This solubility was used as the highest concentration tested for small molecule activity.
2. Protein Immobilization
The c-Myc370-412-biotin peptide stock solution was added to 1.05×PBS-P buffer to prepare a 50 μM solution, and then diluted with 1.00×PBS-P buffer (5% DMSO) to […] for protein immobilization.
After washing the sample channel and reference channel of the chip with 1.00×PBS-P buffer (5% DMSO), an automatic mode was used to immobilize the protein in the sample channel. The target amount of the immobilized protein was 500RU. The immobilization was successful. The buffer was used continuously to flush until equilibrium.
3. Small Molecule Activity Test.
Buffer was used to prepare different concentrations of small molecule compounds for sample testing. The system was 1.00×PBS-P buffer (5% DMSO). The difference was detected between the response of small molecules flowing through the sample channel and the reference channel.
The experimental conditions were a flow rate of 30 μL/min, binding time of 120 seconds, and dissociation time of 240 seconds. After each binding and dissociation test, 50% DMSO was used to flush the tubing, and 10 mM glycine-HCl buffer (pH 2.1) was used to flush the surface of the chip to wash away the remaining compound molecules.

[2] = tested on: human esophageal squamous cell carcinoma cells (KYSE510); test: Anti-cancer activity test, MTT, KYSE510 cells; type: cell-based; settings: KYSE-510, culturing for 72 hours
Method: as §1, §2, §3, §4, §5, §6, §7

[3] = tested on: human chronic myeloid leukemia cells (K562); test: Anti-cancer activity test, MTT, K562 cells; type: cell-based; settings: culturing for 72 hours
Method: as §1, §2, §3, §4, §5, §6, §7

[4] = tested on: human large cell lung cancer cells (H460); test: Anti-cancer activity test, MTT, H460 cells; type: cell-based; settings: NCI-H460, culturing for 72 hours
Method: as §1, §2, §3, §4, §5, §6, §7

c-Myc peptide LE40 = c-Myc peptide LE40 (Homo sapiens, UniProt P01106); test: Single-cycle binding kinetics with c-Myc peptide LE40
c-Myc protein = c-Myc protein (Homo sapiens (Human), UniProt P01106); test: Degradation of c-Myc protein
[5] = target: c-Myc peptide LE40 (S373A) (Homo sapiens, UniProt P01106, S373A); test: Single-cycle binding kinetics with c-Myc peptide LE40 (S373A)
[6] = tested on: tumor cells with high expression of c-Myc; test: Inhibition of tumor cells with high expression of c-Myc; type: cell-based
c-Myc and Max = c-Myc and Max (Homo sapiens (Human), UniProt P01106); test: Competition for the binding of c-Myc and Max
c-Myc and Max, sequence (P01106 whole entry): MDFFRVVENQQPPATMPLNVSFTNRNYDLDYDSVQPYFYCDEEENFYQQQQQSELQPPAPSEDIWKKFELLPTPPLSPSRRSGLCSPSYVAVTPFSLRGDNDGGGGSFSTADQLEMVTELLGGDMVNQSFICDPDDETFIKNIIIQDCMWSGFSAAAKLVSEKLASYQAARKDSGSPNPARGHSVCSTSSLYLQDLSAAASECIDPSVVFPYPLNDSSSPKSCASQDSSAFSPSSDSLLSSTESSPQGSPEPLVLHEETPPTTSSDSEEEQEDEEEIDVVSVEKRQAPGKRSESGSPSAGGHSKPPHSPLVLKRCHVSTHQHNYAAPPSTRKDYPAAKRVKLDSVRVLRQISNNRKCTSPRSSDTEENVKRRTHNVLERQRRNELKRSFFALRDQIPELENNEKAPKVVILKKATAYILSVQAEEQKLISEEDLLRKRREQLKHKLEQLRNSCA

c-Myc370-412-biotin peptide, sequence (P01106 385-427): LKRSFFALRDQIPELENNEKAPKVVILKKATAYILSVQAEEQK
c-Myc protein, sequence (P01106 whole entry): as the sequence (P01106 whole entry) above

SMILES | IC50 (HL60 cells) | Kd [1] | IC50 [2] | IC50 [3] | IC50 [4] | other results
CC(C)C[C@H](NC(=O)[C@H](Cc1cn(C(c2ccccc2)(c2ccccc2)c2ccccc2)cn1)NC(=O)OCC1c2ccccc2-c2ccccc21)B1O[C@@H]2C[C@@H]3C[C@@H](C3(C)C)[C@]2(C)O1 [Compound A4] | < 0.1 µM | < 0.1 µM | – | – | – | –
CC(C)C[C@H](NC(=O)[C@H](CC(C)C)NC(=O)CC1c2ccccc2-c2ccccc21)B(O)O [Compound A67] | < 0.1 µM | – | < 0.1 µM | < 0.1 µM | < 0.1 µM | –
CC(C)C[C@H](NC(=O)[C@H](Cc1c[nH]c2ccccc12)NC(=O)CC1CCCC1)B(O)O [Compound A69] | < 0.1 µM | – | < 0.1 µM | < 0.1 µM | < 0.1 µM | –
CC(C)C[C@H](NC(=O)[C@H](CCC(=O)NC(c1ccccc1)(c1ccccc1)c1ccccc1)NC(=O)OCC1c2ccccc2-c2ccccc21)B1O[C@@H]2C[C@@H]3C[C@@H](C3(C)C)[C@]2(C)O1 [Compound A6] | < 0.1 µM | < 0.1 µM | – | – | – | –
CSCC[C@H](NC(=O)OCC1c2ccccc2-c2ccccc21)C(=O)N[C@@H](CC(C)C)B1O[C@@H]2C[C@@H]3C[C@@H](C3(C)C)[C@]2(C)O1 [Compound A5] | < 0.1 µM | 0.1 to 0.5 µM | – | – | – | Kd (c-Myc peptide LE40): 0.16 µM; degradation of c-Myc protein (c-Myc protein): promote the degradation of c-Myc protein; binding (single-cycle binding kinetic curve) [5]: no obvious binding
CC(C)C[C@H](NC(=O)[C@H](CC(C)C)NC(=O)OCC1c2ccccc2-c2ccccc21)B1O[C@@H]2C[C@@H]3C[C@@H](C3(C)C)[C@]2(C)O1 [Compound A10] | < 0.1 µM | – | < 0.1 µM | < 0.1 µM | < 0.1 µM | –
CC(C)C[C@H](NC(=O)[C@@H](NC(=O)OCC1c2ccccc2-c2ccccc21)[C@@H](C)OC(C)(C)C)B1O[C@@H]2C[C@@H]3C[C@@H](C3(C)C)[C@]2(C)O1 [Compound A2] | < 0.1 µM | 0.1 to 0.5 µM | – | – | – | –
CC(C)C[C@H](NC(=O)[C@H](CCCCNC(=O)OC(C)(C)C)NC(=O)OCC1c2ccccc2-c2ccccc21)B1O[C@@H]2C[C@@H]3C[C@@H](C3(C)C)[C@]2(C)O1 [Compound A13] | < 0.1 µM | – | – | – | – | selective inhibition of tumor cells with high expression of c-Myc [6]: selectively inhibits tumor cells with high expression of c-Myc; competition for the binding of c-Myc and Max (c-Myc and Max): can compete for the binding of c-Myc and Max; degradation of c-Myc protein (c-Myc protein): promote the degradation of c-Myc protein
CC(C)C[C@H](NC(=O)[C@H](CCC(=O)OC(C)(C)C)NC(=O)OCC1c2ccccc2-c2ccccc21)B1O[C@@H]2C[C@@H]3C[C@@H](C3(C)C)[C@]2(C)O1 [Compound A7] | < 0.1 µM | < 0.1 µM | – | – | – | –
CC(C)C[C@H](NC(=O)[C@H](CSC(c1ccccc1)(c1ccccc1)c1ccccc1)NC(=O)OCC1c2ccccc2-c2ccccc21)B1O[C@@H]2C[C@@H]3C[C@@H](C3(C)C)[C@]2(C)O1 [Compound A3] | 0.5 to 2 µM | 0.1 to 0.5 µM | – | – | – | –
